Data reported in patent publication US11230534B2, “KDM1A inhibitors for the treatment of disease” (Imago Biosciences, Inc., priority 2015, dated 2022).

Assays:
Assay type in all cases: physicochemical
[1] = Variable temperature XRPD (VT-XRPD)
Description: Samples run under ambient conditions were prepared as flat plate specimens using powder as received without grinding. Approximately 1-2 mg of the sample was lightly pressed on a glass slide to obtain a flat surface. Samples run under non-ambient conditions were mounted on a silicon wafer with heat-conducting compound. The sample was then heated to the appropriate temperature at 20° C./min and subsequently held isothermally for 1 minute before data collection was initiated.

[2] = Polymorphism assessment (slurry, maturation, evaporation; XRPD); conditions: 10 solvents, maturation 24 hours
Description: (§1) A preliminary polymorphism assessment was carried out on the three most crystalline salt forms, the mono tartrate (TAR Form 1), mono oxalate (OXA Form 1), and bis tosylate (pTSA Form 2). Each salt was treated with the relevant solvent (10 vol, 30 mg in 300 μL) at 25° C. The samples were stirred for 10 minutes and then heated to 50° C. for 1 hour. The resulting suspensions were matured for 24 hours and any resulting solutions were allowed to evaporate slowly. After maturation or evaporation, the solids were filtered and air-dried before analysis by XRPD.
(§2) Amorphous bis tosylate was suspended in the solvent system below (30 mg in 150 μl) at ambient conditions. The suspensions were shaken in the maturation chamber between ambient and 50° C. for 19 h (8 h cycles), then allowed to stand at ambient conditions for 10 min. An aliquot of the solid was air dried and analyzed by XRPD and then placed for 1 week at 40° C./75% RH and re-analyzed. If solutions were recovered, the solvents were allowed to evaporate at ambient conditions and the residues were initially analyzed by XRPD.
(8 h cycles). After 4 days the solids were filtered and air dried. Solids obtained were initially analyzed by XRPD. Maturation in n-heptane, diethyl ether, ethyl acetate, isopropyl acetate, methylisobutyl ketone, 2-propanol, methylethyl ketone, acetone, tert-butylmethyl ether, cyclohexane, 1,4-dioxane, toluene, chloroform, 1,2-dimethoxyethane, tetrahydrofuran, acetonitrile, nitromethane, and 2-propanol:water 95:5 yielded filtered solids of Form 2.
Supernatants from the maturation experiments and solutions from cooling were allowed to slowly evaporate at ambient conditions. The residues were analyzed by XRPD. Slow evaporation from the following supernatants yielded: dimethyl sulfoxide, oil; water, oil; N,N-dimethylformamide, gum; N-methylpyrrolidone, oil; tetrahydrofuran:water 95:5, gum; and acetone:water 95:5 gum. Solutions obtained after the solubility assessment were placed in a fridge (4° C.) for 2 days and in a freezer (−20° C.) for another 2 days. No solids were recovered. […]

[3] = Storage at elevated temperature and humidity (40° C./75% RH, 25° C./95-97% RH; XRPD, HPLC); conditions: for change of form under temperature and humidity conditions: conclusion; for Storage at 40° C. and 75% RH and 25° C. and 95% RH / exposure to humidity (form, purity): scaled-up salts
Description: Example 1 was dissolved in solvent (240 mg in 2.4 mL, 10 volumes) to form stock solutions and then dispensed into vials (400 μL/˜40 mg per vial). The solutions were treated with 1 equivalent of counterions (for hydrochloric acid (HCl), sulfuric acid (H2SO4 or “SO4”), methanesulfonic acid (mesylate or “MSA”), phosphoric acid (H3PO4 or “PHOA”), and L-tartaric acid (TAR), 77 μL for 1M; for fumaric acid (FUA), 154 μL for 0.5M) using stock solutions. The solutions/suspensions were then cooled down to 0° C. at 0.2° C./min and stirred at 0° C. overnight. The resulting solids were analyzed by XRPD and those that were amorphous or poorly crystalline were then matured for 5 days. If after cooling to 0° C. a clear solution or gum was obtained, the mother liquors were removed from the vials, split in two and anti-solvent (MTBE or heptane, 400 μl) added to each of the aliquots. After anti-solvent addition, the samples were matured for 5 days. After maturation, clear solutions and gums were allowed to evaporate at ambient conditions. Suspensions were filtered, air-dried and characterized by XRPD. Any resulting crystalline solids were characterized by high resolution XRPD, 1H NMR, HPLC and one week storage at 40° C. and 75% RH.
Example 1 was dissolved in methyethyl ketone (MEK) or acetonitrile (MeCN) (20 mg in 200 μl, 10 vol) at ambient conditions. The solutions were then heated to 50° C., treated with 1.1 or 2.1 eq of acid and stirred at this temperature for 1 hour. The resulting solutions/suspensions were then cooled down to 5° C. at 0.1° C./min and held overnight. Any solids obtained were analyzed by XRPD and those that were amorphous or poorly crystalline were then matured between 50° C./ambient on an 8-hour cycle. Any clear solutions were left to evaporate slowly at ambient conditions. If the samples evaporated to form gums, these were dissolved in IPA (10 vol, 200 μL) and then matured. Any solutions with gums present were also matured between 50° C./ambient on an 8 hour cycle. Any resulting crystalline solids were characterized by high resolution XRPD, NMR, HPLC, IC (for inorganic counter-ions) and one week storage at 40° C. and 75% RH.
In the first experiment, Example 1 was dissolved in MEK or MeCN (100 mg in 1 mL, 10 vol) at ambient conditions. The solutions were then heated to 50° C., treated with 2.1 eq of p-toluene sulfonic acid monohydrate (1M in THF, 405 μL) and stirred constant temperature for 1 hour. The resulting suspensions were then cooled down to 5° C. at 0.1° C./min overnight. Any solids obtained were analyzed by XRPD and those that were amorphous or weakly crystalline were then matured between 50° C./ambient on an 8-hour cycle for 7 days. Any resulting crystalline solids were characterized by high resolution XRPD, ^1H NMR, HPLC, TGA, DSC and one week storage at 40° C. and 75% RH. […] However, after further maturation to try and improve the crystallinity, both tosylate salts were consistent with pTSA Form 2 by XRPD. […]
as §1
as §2, with “If solutions were recovered, the solvents were allowed to evaporate at ambient conditions and the residues were initially analyzed by XRPD.” left out

[4] = Gravimetric Vapour Sorption (GVS); conditions: for hygroscopicity: conclusion; for GVS water uptake: full cycle, 25° C.
Description: Sorption isotherms were obtained using a SMS DVS Intrinsic moisture sorption analyzer, controlled by DVS Intrinsic Control software v1.0.1.2 (or v 1.0.1.3). The sample temperature was maintained at 25° C. by the instrument controls. The humidity was controlled by mixing streams of dry and wet nitrogen, with a total flow rate of 200 mL/min The relative humidity was measured by a calibrated Rotronic probe (dynamic range of 1.0-100% RH), located near the sample. The weight change, (mass relaxation) of the sample as a function of % RH was constantly monitored by the microbalance (accuracy ±0.005 mg).
Typically 5-20 mg of sample was placed in a tared mesh stainless steel basket under ambient conditions. The sample was loaded and unloaded at 40% RH and 25° C. (typical room conditions). A moisture sorption isotherm was performed as outlined below (2 scans giving 1 complete cycle). The standard isotherm was performed at 25° C. at 10% RH intervals over a 0-90% RH range. Data analysis was carried out using Microsoft Excel using DVS Analysis Suite v6.2 (or 6.1 or 6.0).

[5] = Chemical stability by HPLC purity re-test / degradation; conditions: for Initial Purity: HPLC 1-24 hours post-synthesis
Description: Various lots of Example 1 were analyzed by HPLC shortly after synthesis (analysis from 1-24 hours post-synthesis) and re-tested for purity a unit of time later.
Purity analysis was performed on an Agilent HP1100 series system equipped with a diode array detector and using ChemStation software vB.04.03 using one of the methods detailed below: […]

Compound | temperature up to which crystalline form is unchanged (VT-XRPD) [1] | change in crystalline form in polymorphism assessment [2] | change of form under temperature and humidity conditions [3] | Storage at 40° C. and 75% RH and 25° C. and 95% RH / exposure to humidity (form, purity) [3] | form by XRPD post GVS [4] | hygroscopicity [4] | GVS water uptake [4] | chemical stability relative to free form ([3]; limited stability studies) | behaviour of free base form at high humidity ([3]; high humidity) | Re-Test Purity ([5]; Lot 1, free base, 49 days between tests) | Initial Purity ([5]; Lot 1, free base) | Re-Test Purity ([5]; Lot 2, free base, 16 days between tests) | Initial Purity ([5]; Lot 2, free base) | stability of free base form ([5]; ambient conditions) | loss in purity on storage ([3]; 40° C. and 75% RH) | Storage at 40° C. and 75% RH (form by XRPD) ([3]; one week)
oxalate | 140 °C | only one change in form was observed | changed form under humidity, but not temperature conditions | changed the form of the material to OXA Form 2 | change in form to OXA Form 2 | hygroscopic | ~12 % w/w | – | – | – | – | – | – | – | – | –
tosylate | 170 °C | no change in crystalline form was noted in 9 | – | no changes in the form or purity | No change in form was observed | – | ~5 % w/w | improved chemical stability over the free form | – | – | – | – | – | – | – | –
CN1CCN(C(=O)C(CN[C@@H]2C[C@H]2c2ccc(F)cc2)NC(=O)c2ccc(-n3ccnn3)cc2)CC1 (stereo partly drawn) [Example 1, N-[3-[[(1R,2S)-2-(4-Fluorophenyl)cyclopropyl]amino]-1-(4-methylpiperazin-1-yl)-1-oxopropan-2-yl]-4-(1H-1,2,3-triazol-1-yl)benzamide] | – | – | – | – | – | – | – | – | deliquesces when subjected to high humidity | 82% | 93% | 72% | 81% | degrades at ambient conditions over time | – | –
O=C(O)C(O)C(O)C(=O)O (stereo not drawn) [tartrate] | – | five of the tartrate samples changed in form | change under both temperature and humidity conditions | changes in crystallinity and form | decreased crystallinity and a change in form | highly hygroscopic | ~30 % w/w | – | – | – | – | – | – | – | > 30% | no change in form was observed
